Literature values, collected in US9669099B2, “Pine bark extract and black pepper essential oil with anti-inflammatory and anti-arthritic action and method of preparing same” (priority 2015, dated 2017).

Assays:
leukotriene production = settings: leukotriene as a mediator of inflammation
[1] = test system: TNF-α (Tumor Necrosis Factor alpha); settings: fibroblast cultures, all animals assessed

Structure (SMILES)	inhibitor of leukotriene production (leukotriene production)	other results
C=CC(C)(O)CCC=C(C)C (racemic) [(±)-linalool]	effective as an inhibitor	–
CC1=C[C@@H](O)[C@@H]2C[C@H]1C2(C)C (relative stereo) [(+)-cis-verbenol]	effective as an inhibitor	–
C=C(C)C1CC=C(C)CC1 (single isomer, unassigned; (+)) [(+)-limonene]	effective as an inhibitor	–
CC1CCC(C(C)C)C(O)C1 (single isomer, unassigned; (-)) [(−)-menthol]	effective as an inhibitor	–
CC1=CC[C@@H]2C[C@H]1C2(C)C [(+)-α-pinene]	effective as an inhibitor	–
CC1=CC[C@H]2C[C@@H]1C2(C)C [(−)-α-pinene]	effective as an inhibitor	–
C/C1=C\CC/C(C)=C/CC(C)(C)/C=C/C1 [Alpha-humulene]	–	inhibition of LPS-induced NF-kB activation (NF-kB activation): inhibit; prevention of production of proinflammatory cytokines TNF-a and IL-1b (TNF-a and IL-1b): ability to prevent; inhibition of LPS-induced neutrophil migration (neutrophil migration): inhibit; prevention of in vivo up-regulation of kinin B1 receptors (kinin B1 receptors): ability to prevent
C=C1CC/C=C(\C)CC[C@@H]2[C@@H]1CC2(C)C [Beta-caryophyllene]	–	inhibition of LPS-induced NF-kB activation (NF-kB activation): inhibit; inhibition of LPS-induced neutrophil migration (neutrophil migration): inhibit
CC(C)=CCCC(C)=CC=O [citral]	effective as an inhibitor	–
CC(C)=CCC/C(C)=C/CO [geraniol]	effective as an inhibitor	–
C=C(C)[C@H]1CC=C(C)CC1 [limonene]	–	inhibition of TNF-α [1]: inhibition of TNF-α
CC1=CCCC(C)(C)C1C=O (stereo not drawn) [α-cyclocitral]	effective as an inhibitor	–
CC1=CC=C(C(C)C)CC1 [α-terpinene]	effective as an inhibitor	–
C=CC(=C)CCC=C(C)C [β-myrcene]	effective as an inhibitor	–
CC1=CCC(C(C)C)=CC1 [γ-terpinene]	effective as an inhibitor	–
